The values that follow come from publication PMC6522510 (Nature Communications, 2019).

Where a name gives a salt, the structure may show the parent alone. Read-outs that look alike come from different tables or passages of the source. Numbered stars: 1 amine (or outer) side, 2 acyl side, 3 side chain; on linkers, the order of the positions; unused ones are H or OH. Peptide text beside a SMILES is read from it. CO = O=C([*:1])[*:2]

Some test systems named below: CHRF288-11; CMK; CMS; M07e; ML-2; MOLM-13; MV4-11; U937.
What all share (design): species or system AML cell lines (8); Primary HTS, single concentration about 10 uM, Cell Titer Glo viability; log10 luminescence, per cent inhibition relative to cycloheximide control
Settings in all cases: 72 h, relative to cycloheximide control, log10 luminescence, inhibitor
Background: ATP-based viability assays read luminescence as a measure of living cells.

Turning to `N#Cc1ccc(NCCNCC(=O)N2CCC[C@H]2C#N)nc1` [SJ000772405-1, NVP DPP 728 DIHYDROCHLORIDE], the CHRF288-11 %inh in the assay on CHRF288-11 is -4.67%. Also, the CMK %inh in the assay on CMK is on record as -0.003306%. The CMS %inh in the assay on CMS was 0.6231%. Moreover, in the assay with M07e, the M07e %inh is on record as -0.0114%. Also, the ML-2 %inh in the assay with ML-2 is -1.409%. The MOLM-13 %inh in the assay on MOLM-13 was -0.2952%. In addition, the MV4-11 %inh in the assay on MV4-11 was -0.757%. Moreover, the U937 %inh in the assay on U937 is reported as -2.969%.
With `O=C(O)Cc1cccc2c(=O)c([N+](=O)[O-])c(-c3ccccc3[N+](=O)[O-])oc12` [SJ000772406-1, AMINOPEPTIDASE N INHIBITOR], in the assay with CHRF288-11, the CHRF288-11 %inh turned out to be 5.038%. Besides, the CMK %inh in the assay on CMK is on record as -2.215%. In addition, in the assay on CMS, the CMS %inh is given as -0.7017%. The M07e %inh in the assay with M07e was -0.1255%. The ML-2 %inh with ML-2 is 1.312%. The MOLM-13 %inh in the assay with MOLM-13 is given as -3.246%. Also, the MV4-11 %inh in the assay on MV4-11 is -1.986%. Moreover, the U937 %inh in the assay with U937 was -3.753%.
For `CC(C)[C@H](NC(=O)[C@H](CCCNC(=N)N)NC(=O)N[C@@H](Cc1ccccc1)C(=O)O)C(=O)N[C@H](C=O)CCCNC(=N)N` [SJ000772410-1, ANTIPAIN, DIHYDROCHLORIDE] ({Phe-CO}-Arg-Val-Arg-aldehyde), in the assay with CHRF288-11, the CHRF288-11 %inh came out at 4.85%. Besides, in the assay on CMK, the CMK %inh is -5.865%. The CMS %inh in the assay on CMS came to 2.317%. Moreover, the M07e %inh in the assay on M07e was -0.5062%. For the same compound, the ML-2 %inh in the assay on ML-2 worked out at 0.8211%. Also, the MOLM-13 %inh in the assay with MOLM-13 is on record as -3.916%. In the assay with MV4-11, the MV4-11 %inh is -1.834%. For the same compound, in the assay on U937, the U937 %inh is on record as -3.748%.
Consider `CNC(=O)[C@@H](NC(=O)[C@H](CC(C)C)[C@H](O)C(=O)NO)C(C)(C)C` [SJ000772411-1], for which, in the assay on CHRF288-11 (CHRF288-11 %inh, 10 µM), the CHRF288-11 %inh is 14.63%. In addition, the CMK %inh in the assay with CMK (CMK %inh, 10 µM) is -3.077%. For the same compound, the CMS %inh with CMS (CMS %inh, 10 µM) was -1.756%. Moreover, the M07e %inh in the assay with M07e (M07e %inh, 10 µM) is -0.5084%. For the same compound, the ML-2 %inh in the assay on ML-2 (ML-2 %inh, 10 µM) was determined as 1.691%. Besides, in the assay with MOLM-13 (MOLM-13 %inh, 10 µM), the MOLM-13 %inh was found to be 2.673%. For the same compound, the MV4-11 %inh with MV4-11 (MV4-11 %inh, 10 µM) is recorded as -4.036%. Also, the U937 %inh in the assay on U937 (U937 %inh, 10 µM) is on record as 2.038%.
Consider `CNC(=O)[C@@H](NC(=O)[C@H](CC(C)C)[C@H](O)C(=O)NO)C(C)(C)C` [SJ000772411-2], for which, in the assay on CHRF288-11 (CHRF288-11 %inh, 10 µM), the CHRF288-11 %inh is recorded as 28.21%. The CMK %inh with CMK (CMK %inh, 10 µM) was determined as 5.663%. Also, in the assay on CMS (CMS %inh, 10 µM), the CMS %inh is 3.256%. In the assay on M07e (M07e %inh, 10 µM), the M07e %inh is reported as 4.087%. In addition, the ML-2 %inh in the assay on ML-2 (ML-2 %inh, 10 µM) is 2.823%. In the assay on MOLM-13 (MOLM-13 %inh, 10 µM), the MOLM-13 %inh was determined as 10.77%. In addition, in the assay with MV4-11 (MV4-11 %inh, 10 µM), the MV4-11 %inh came to 3.499%. The U937 %inh with U937 (U937 %inh, 10 µM) is reported as 3.1%.
Consider `COC(=O)[C@H](CC(C)C)NC(=O)[C@@H](O)[C@H](N)Cc1ccccc1` [SJ000772416-1, BESTATIN METHYL ESTER], for which the CHRF288-11 %inh in the assay with CHRF288-11 worked out at 5.118%. Besides, the CMK %inh in the assay with CMK amounted to 1.43%. The CMS %inh in the assay on CMS came to 2.851%. Moreover, the M07e %inh in the assay on M07e is reported as 3.275%. For the same compound, in the assay on ML-2, the ML-2 %inh is given as 3.75%. Also, the MOLM-13 %inh in the assay with MOLM-13 is reported as -1.654%. Moreover, the MV4-11 %inh with MV4-11 was 8.922%. The U937 %inh with U937 stood at 22.26%.
Regarding `CC(C)[C@@H]1C(=O)N(S(C)(=O)=O)[C@@H]2CCN(C(=O)/C=C/CN3CCCCC3)[C@H]21` [SJ000772418-1, GW 311616 HYDROCHLORIDE], the CHRF288-11 %inh in the assay with CHRF288-11 worked out at 12.76%. The CMK %inh in the assay with CMK is -2.728%. Also, the CMS %inh with CMS is recorded as 4.399%. Besides, the M07e %inh in the assay on M07e was 1.212%. Moreover, in the assay on ML-2, the ML-2 %inh came out at 0.5681%. Moreover, the MOLM-13 %inh with MOLM-13 is -2.354%. Further, the MV4-11 %inh in the assay on MV4-11 is recorded as 3.043%. Besides, the U937 %inh with U937 is recorded as -1.402%.
On to `C=CCNC(=O)c1cc([N+](=O)[O-])cc2c(=O)[nH]c(Nc3ccc(Cl)c(Cl)c3)nc12` [SJ000772422-1, AZ 10417808], for which the CHRF288-11 %inh in the assay on CHRF288-11 came out at 0.7864%. For the same compound, in the assay on CMK, the CMK %inh is on record as -3.629%. The CMS %inh in the assay on CMS is on record as 0.1501%. The M07e %inh in the assay with M07e was determined as 3.044%. In the assay with ML-2, the ML-2 %inh was 0.702%. The MOLM-13 %inh in the assay on MOLM-13 stood at 0.5205%. In addition, the MV4-11 %inh in the assay on MV4-11 is given as 3.564%. The U937 %inh in the assay on U937 was -1.321%.
Take `COC[C@@H](NC(=O)[C@@H](NC(=O)[C@H](CCCc1ccc(-c2ccccc2)c(C)c1)CC(=O)O)C(C)(C)C)c1ccccc1` [SJ000772423-1, UK 370106]: the CHRF288-11 %inh in the assay with CHRF288-11 is reported as 6.021%. For the same compound, the CMK %inh in the assay on CMK is reported as -0.5196%. In addition, the CMS %inh with CMS was determined as 4.79%. For the same compound, in the assay on M07e, the M07e %inh is 2.4%. Moreover, the ML-2 %inh in the assay with ML-2 is 0.2215%. Further, the MOLM-13 %inh in the assay on MOLM-13 was determined as 2.493%. Further, the MV4-11 %inh in the assay with MV4-11 was determined as 2.629%. The U937 %inh with U937 came out at 2.263%.
In the case of `NC(N)=NCCS[C@@H](CC(=O)O)C(=O)O` [SJ000772425-1, GEMSA], the CHRF288-11 %inh in the assay on CHRF288-11 is recorded as -3.397%. Also, the CMK %inh in the assay with CMK is on record as -1.464%. Moreover, the CMS %inh in the assay with CMS is listed as -0.9686%. In the assay with M07e, the M07e %inh was determined as 1.501%. The ML-2 %inh in the assay with ML-2 amounted to 0.5506%. The MOLM-13 %inh with MOLM-13 stood at 0.138%. Also, the MV4-11 %inh in the assay with MV4-11 is on record as 3.627%. The U937 %inh with U937 is 0.2934%.
Turning to `COc1cc(C(C)C)c2c(c1)S(=O)(=O)N(COc1cc(=O)n3cccc(OCCN4CCCCC4)c3n1)C2=O` [SJ000772427-1, SSR 69071], the CHRF288-11 %inh with CHRF288-11 was -3.004%. The CMK %inh in the assay with CMK is listed as 0.212%. Moreover, the CMS %inh with CMS is listed as 3.665%. Also, in the assay on M07e, the M07e %inh stood at 1.75%. The ML-2 %inh in the assay on ML-2 is given as -0.6502%. Also, the MOLM-13 %inh in the assay on MOLM-13 is 1.802%. Moreover, the MV4-11 %inh in the assay on MV4-11 was 4.165%. In addition, the U937 %inh in the assay with U937 amounted to 2.526%.
On to `CC(C)C[C@H](N)[C@](O)(Cc1cnc[nH]1)C(=O)O` [SJ000772431-1, LEUHISTIN], for which the CHRF288-11 %inh in the assay with CHRF288-11 is 4.998%. In the assay with CMK, the CMK %inh is -1.024%. Besides, in the assay on CMS, the CMS %inh is on record as 1.294%. Further, the M07e %inh in the assay with M07e is on record as 1.038%. For the same compound, the ML-2 %inh with ML-2 is reported as 5.093%. Moreover, the MOLM-13 %inh in the assay with MOLM-13 is on record as 0.702%. In addition, the MV4-11 %inh with MV4-11 stood at 3.279%. Further, in the assay on U937, the U937 %inh is reported as 2.882%.
`O=C(O)C(Cc1ccc2c(c1)oc1ccccc12)NCP(=O)(O)O` (centres unmarked) [SJ000772433-1, CGS 35066]: the CHRF288-11 %inh in the assay on CHRF288-11 amounted to 0.3778%. Besides, the CMK %inh in the assay with CMK is given as -1.634%. Besides, the CMS %inh with CMS was -0.6949%. For the same compound, the M07e %inh in the assay on M07e amounted to 2.079%. Also, the ML-2 %inh in the assay on ML-2 is on record as 5.201%. In addition, the MOLM-13 %inh with MOLM-13 worked out at 2.239%. In addition, in the assay with MV4-11, the MV4-11 %inh amounted to 3.69%. For the same compound, in the assay with U937, the U937 %inh stood at 0.4141%.
For the compound `C[C@H](NC(=O)Cc1cc(F)cc(F)c1)C(=O)N[C@H](C(=O)OC(C)(C)C)c1ccccc1` [SJ000772434-1, DAPT | DAPT (GSI-IX)], the CHRF288-11 %inh with CHRF288-11 is given as 2.669%. Moreover, the CMK %inh in the assay on CMK is given as -0.675%. For the same compound, the CMS %inh with CMS is recorded as 0.2641%. In the assay on M07e, the M07e %inh amounted to 1.132%. In addition, the ML-2 %inh in the assay on ML-2 worked out at 5.016%. The MOLM-13 %inh in the assay with MOLM-13 worked out at 2.225%. Moreover, the MV4-11 %inh with MV4-11 came to 5.48%. In addition, the U937 %inh in the assay with U937 is given as 0.2025%.
For `NC(CCC(=O)NOC(=O)c1ccccc1)C(=O)N1CCCC1` (centres unmarked) [SJ000773150-1], in the assay with CHRF288-11, the CHRF288-11 %inh is reported as -3.643%. Further, the CMK %inh in the assay on CMK is -2.389%. Moreover, the CMS %inh with CMS is listed as -1.088%. Further, the M07e %inh in the assay with M07e is on record as 3.014%. Also, in the assay with ML-2, the ML-2 %inh stood at 1.208%. Besides, the MOLM-13 %inh with MOLM-13 stood at 1.337%. For the same compound, in the assay on MV4-11, the MV4-11 %inh was -0.09979%. Moreover, in the assay on U937, the U937 %inh is reported as -0.8595%.
With `Cc1c[nH]c(/C=C2\C(=O)Nc3ccccc32)c1CCC(=O)O` [SJ000773151-1, SU 5402 |], the CHRF288-11 %inh in the assay on CHRF288-11 came out at 8.965%. For the same compound, in the assay on CMK, the CMK %inh is reported as 3.453%. In the assay on CMS, the CMS %inh turned out to be 2.629%. The M07e %inh with M07e is listed as 7.079%. Further, the ML-2 %inh with ML-2 is recorded as -0.6671%. For the same compound, the MOLM-13 %inh in the assay with MOLM-13 is given as 64.04%. Also, the MV4-11 %inh with MV4-11 amounted to 45.76%. Besides, the U937 %inh in the assay with U937 is -1.966%.
